According to patent publication US8722849B2, “Polypeptides” (Novo Nordisk A/S, priority 2011, dated 2014):
≈ marks a conversion by molar mass, not a printed value. Like-named read-outs stand apart in the source and are kept apart here. Starred links: 1 amine or outer side, 2 acyl side, 3 side chain; linkers in the order of their positions; H or OH if unused. Positions of bridges follow the written chain, without caps; N, C: chain ends. Residues, ends and D or L forms follow the SMILES beside them. *: point of attachment. C20 diacid = O=C(O)CCCCCCCCCCCCCCCCCCC(=O)*; C18 diacid = O=C(O)CCCCCCCCCCCCCCCCC(=O)*; γGlu = O=C(O)[C@H](CCC(=O)[*:2])N[*:1]

Columns and labels:
[1] = biological target: T1, human amylin receptor (amylin 3(a) receptor: human calcitonin receptor + RAMP-3) (Homo sapiens, UniProt O60896+P30988); test: Assay (II)a functional CRE-luciferase assay, human amylin receptor; assay type: cell-based; settings: Table 2; BHK amylin 3(a)-receptor/CRE-luc cells
T1 construct: expressed in transfected cells; host or cells: BHK570
T1 sequence (P30988 25-474): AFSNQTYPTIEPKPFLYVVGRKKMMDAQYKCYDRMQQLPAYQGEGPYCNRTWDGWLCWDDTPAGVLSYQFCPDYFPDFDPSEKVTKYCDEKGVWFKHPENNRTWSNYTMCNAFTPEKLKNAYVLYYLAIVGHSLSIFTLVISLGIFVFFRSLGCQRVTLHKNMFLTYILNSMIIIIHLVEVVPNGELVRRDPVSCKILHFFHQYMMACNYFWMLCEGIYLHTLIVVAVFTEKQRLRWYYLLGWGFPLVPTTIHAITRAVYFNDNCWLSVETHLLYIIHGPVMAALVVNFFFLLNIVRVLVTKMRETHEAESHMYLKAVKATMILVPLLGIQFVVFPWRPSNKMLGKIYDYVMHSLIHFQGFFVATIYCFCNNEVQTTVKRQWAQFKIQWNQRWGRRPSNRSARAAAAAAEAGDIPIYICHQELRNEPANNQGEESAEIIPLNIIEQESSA
T1 sequence (O60896 24-148 partner): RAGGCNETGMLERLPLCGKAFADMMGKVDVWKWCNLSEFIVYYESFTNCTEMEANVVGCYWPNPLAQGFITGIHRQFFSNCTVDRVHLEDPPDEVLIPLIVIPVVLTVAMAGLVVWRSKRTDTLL

[2] = biological target: T2, human calcitonin receptor (Homo sapiens, UniProt P30988); test: Assay (II)a functional CRE-luciferase assay, human calcitonin receptor; assay type: cell-based; settings: Table 7; human calcitonin (CTa) receptor
T2 construct: expressed in transfected cells; host or cells: BHK570
T2 sequence (P30988 25-474): T1 sequence (P30988 25-474)

[3] = Assay (IV) determination of solubility; assay type: physicochemical
In short: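 Eight 100 mM buffers (glycylglycine pH 3.0–5.0, bistrispropane pH 6.0–8.0) each received an equal volume of polypeptide dissolved in water at ~500 nmol/ml. Soluble polypeptide was measured by HPLC following 18 hours at room temperature and centrifugation.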

[4] = biological target: T3, rat amylin 3(a) receptor (rat calcitonin(a) receptor + rat RAMP3) (Rattus norvegicus, UniProt P32214+Q9JJ73); test: Assay (II)b functional cAMP FlashPlate assay, rat amylin receptor; assay type: cell-based; settings: Table 11
T3 construct: expressed in transfected cells; host or cells: BHK tk'ts 13
T3 sequence (P32214 25-479 isoform P32214-2 limits assumed): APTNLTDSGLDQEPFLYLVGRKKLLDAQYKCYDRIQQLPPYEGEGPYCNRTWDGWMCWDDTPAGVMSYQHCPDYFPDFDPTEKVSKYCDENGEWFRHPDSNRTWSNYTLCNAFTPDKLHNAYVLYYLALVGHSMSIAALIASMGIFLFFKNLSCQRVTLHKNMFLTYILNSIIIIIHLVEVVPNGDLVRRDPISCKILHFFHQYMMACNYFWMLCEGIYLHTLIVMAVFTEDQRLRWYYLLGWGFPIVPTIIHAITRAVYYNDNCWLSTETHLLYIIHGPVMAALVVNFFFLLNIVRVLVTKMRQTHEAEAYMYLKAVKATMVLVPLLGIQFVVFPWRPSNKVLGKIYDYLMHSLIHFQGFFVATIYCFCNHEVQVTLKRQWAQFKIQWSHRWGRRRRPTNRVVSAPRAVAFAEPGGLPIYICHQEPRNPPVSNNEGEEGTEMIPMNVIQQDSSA
T3 sequence (Q9JJ73 23-147 partner): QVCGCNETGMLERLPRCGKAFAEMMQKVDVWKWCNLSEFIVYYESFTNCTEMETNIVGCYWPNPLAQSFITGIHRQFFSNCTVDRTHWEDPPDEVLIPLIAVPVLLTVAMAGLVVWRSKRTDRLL
In short: (§1)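 cAMP accumulation in transiently transfected BHK tk'ts 13 cells, 100.000 cells/well, expressing rat calcitonin(a) receptor or its RAMP3 co-expression form (amylin 3(a)): 30 min stimulation with IBMX, 24 hours post-transfection. Readout by competition of cellular versus radiolabelled cAMP in FlashPlates, scintillation counted after 3 h.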

[5] = biological target: T4, rat calcitonin (a) receptor (Rattus norvegicus, UniProt P32214); test: Assay (II)b functional cAMP FlashPlate assay, rat calcitonin receptor; assay type: cell-based; settings: Table 11; read-out: CTa receptor rat EC50
T4 construct: expressed in transfected cells; host or cells: BHK tk'ts 13
T4 sequence (P32214 25-479 isoform P32214-2 limits assumed): T3 sequence (P32214 25-479 isoform P32214-2 limits assumed)
In short: as §1

[6] = bistrispropane buffer, pH 6, pH 6.0, read-out: Solubility pH 6.0
[7] = bistrispropane buffer, pH 6.5, pH 6.5, read-out: Solubility pH 6.5
[8] = bistrispropane buffer, pH 7, pH 7.0, 18 hours at room temperature, Table 3, read-out: Solubility pH 7.0
[9] = bistrispropane buffer, pH 7, pH 7.0, read-out: Solubility pH 7.0
[10] = bistrispropane buffer, pH 7.5, pH 7.5, read-out: Solubility pH 7.5
[11] = bistrispropane buffer, pH 8, pH 8.0, read-out: Solubility pH 8.0
[12] = glycylglycine buffer, pH 3, pH 3.0, read-out: Solubility pH 3.0
[13] = glycylglycine buffer, pH 4, pH 4.0, 18 hours at room temperature, Table 2, read-out: Solubility pH 4.0
[14] = glycylglycine buffer, pH 4, pH 4.0, read-out: Solubility pH 4.0
[15] = glycylglycine buffer, pH 5, pH 5.0, read-out: Solubility pH 5.0

| EC50 [1] [nM] | EC50 [2] [nM] | solubility at 18 h [3, 6] [µM] | solubility at 18 h [3, 7] [µM] | solubility at 18 h [3, 8] [µM] | solubility at 18 h [3, 9] [µM] | solubility at 18 h [3, 10] [µM] | solubility at 18 h [3, 11] [µM] | solubility at 18 h [3, 12] [µM] | solubility at 18 h [3, 13] [µM] | solubility at 18 h [3, 14] [µM] | solubility at 18 h [3, 15] [µM] | EC50 [4] [nM] | EC50 [5] [nM] | solubility at 18 h ([3]; bistrispropane buffer, pH 7, pH 7.0, Table 8, read-out: Solubility pH 7.0) [µM] | solubility at 18 h ([3]; bistrispropane buffer, pH 7, pH 7.0, Table 9, read-out: Solubility pH 7.0) [µM] | solubility at 18 h ([3]; bistrispropane buffer, pH 7.5, pH 7.5, Table 9, read-out: Solubility pH 7.5) [µM] | Structure (SMILES) |
| --- | --- | --- | --- | --- | --- | --- | --- | --- | --- | --- | --- | --- | --- | --- | --- | --- | --- |
| 0.0425 | 0.112 | > 200 | 177 (≈ 785 µg/mL) | > 200 | > 200 | > 200 | > 200 | > 200 | > 200 | > 200 | > 200 | 0.015 | 0.375 |  |  |  | CC[C@H](C)[C@H](NC(=O)[C@@H]1CCCN1C(=O)CNC(=O)[C@H](Cc1ccccc1)NC(=O)[C@H](CC(N)=O)NC(=O)[C@H](CC(N)=O)NC(=O)[C@H](CO)NC(=O)[C@H](CO)NC(=O)[C@H](Cc1c[nH]cn1)NC(=O)[C@H](Cc1c[nH]cn1)NC(=O)[C@H](CC(C)C)NC(=O)[C@H](Cc1ccccc1)NC(=O)[C@H](CCC(=O)O)NC(=O)[C@H](C)NC(=O)[C@H](CC(C)C)NC(=O)[C@H](CCCNC(=N)N)NC(=O)[C@H](CCC(N)=O)NC(=O)[C@@H](NC(=O)[C@H](C)NC(=O)[C@@H]1CSSC[C@H](NC(=O)[C@H](Cc2c[nH]cn2)NC(=O)CC[C@H](NC(=O)CCCCCCCCCCCCCCCCC(=O)O)C(=O)O)C(=O)N[C@@H](CC(N)=O)C(=O)N[C@@H]([C@@H](C)O)C(=O)N[C@@H](C)C(=O)N[C@@H]([C@@H](C)O)C(=O)N1)[C@@H](C)O)C(=O)N[C@@H](CC(C)C)C(=O)N1CCC[C@H]1C(=O)N1CCC[C@H]1C(=O)N[C@H](C(=O)N[C@@H](CC(N)=O)C(=O)N[C@H](C(=O)NCC(=O)N[C@@H](CO)C(=O)N[C@@H](CC(N)=O)C(=O)N[C@H](C(=O)N[C@@H](Cc1ccc(O)cc1)C(N)=O)[C@@H](C)O)C(C)C)[C@@H](C)O [Example 48, N-alpha-[(S)-4-Carboxy-4-(17-carboxyheptadecanoylamino)butyryl]-[His1,Glu14,His17]-pramlintide] ({C18 diacid-γGlu}-HCNTATCATQRLAEFLHHSSNNFGPILPPTNVGSNTY-NH2; disulfide 2-7 (inferred)) |
| 0.299 | 0.352 | > 200 | > 200 | > 200 | > 200 | > 200 | > 200 | > 200 | > 200 | > 200 | > 200 | 0.643 | 4.97 |  |  |  | CC[C@H](C)[C@H](NC(=O)[C@@H]1CCCN1C(=O)CNC(=O)[C@H](Cc1ccccc1)NC(=O)[C@H](CC(N)=O)NC(=O)[C@H](CC(N)=O)NC(=O)[C@H](CO)NC(=O)[C@H](CO)NC(=O)[C@H](Cc1c[nH]cn1)NC(=O)[C@H](Cc1c[nH]cn1)NC(=O)[C@H](CC(C)C)NC(=O)[C@H](Cc1ccccc1)NC(=O)[C@H](CCC(=O)O)NC(=O)[C@H](C)NC(=O)[C@H](CC(C)C)NC(=O)[C@H](CCCNC(=N)N)NC(=O)[C@H](CCC(N)=O)NC(=O)[C@@H](NC(=O)[C@H](C)NC(=O)[C@@H]1CSSC[C@H](NC(=O)[C@H](CCCCN)NC(=O)[C@H](CCC(=O)O)NC(=O)CC[C@H](NC(=O)CCCCCCCCCCCCCCCCCCC(=O)O)C(=O)O)C(=O)N[C@@H](CC(N)=O)C(=O)N[C@@H]([C@@H](C)O)C(=O)N[C@@H](C)C(=O)N[C@@H]([C@@H](C)O)C(=O)N1)[C@@H](C)O)C(=O)N[C@@H](CC(C)C)C(=O)N1CCC[C@H]1C(=O)N1CCC[C@H]1C(=O)N[C@H](C(=O)N[C@@H](CC(N)=O)C(=O)N[C@H](C(=O)NCC(=O)N[C@@H](CO)C(=O)N[C@@H](Cc1c[nH]cn1)C(=O)N[C@H](C(=O)N[C@@H](Cc1ccc(O)cc1)C(N)=O)[C@@H](C)O)C(C)C)[C@@H](C)O [Example 56, N-alpha-[(S)-4-Carboxy-4-(19-carboxynonadecanoylamino)butyryl]-Glu-[Glu14,His17,His35]-pramlintide] ({C20 diacid-γGlu}-EKCNTATCATQRLAEFLHHSSNNFGPILPPTNVGSHTY-NH2; disulfide 3-8 (inferred)) |
| 0.117 | 0.606 | > 200 | > 200 | > 200 | > 200 | > 200 | > 200 | > 200 | > 200 | > 200 | > 200 | 0.063 | 2.23 | > 200 | > 200 | > 200 | CC[C@H](C)[C@H](NC(=O)[C@@H]1CCCN1C(=O)CNC(=O)[C@H](Cc1ccccc1)NC(=O)[C@H](CC(N)=O)NC(=O)[C@H](CC(N)=O)NC(=O)[C@H](CO)NC(=O)[C@H](CO)NC(=O)[C@H](Cc1c[nH]cn1)NC(=O)[C@H](CCCNC(=N)N)NC(=O)[C@H](CC(C)C)NC(=O)[C@H](Cc1ccccc1)NC(=O)[C@H](CCC(=O)O)NC(=O)[C@H](C)NC(=O)[C@H](CC(C)C)NC(=O)[C@H](CCCNC(=N)N)NC(=O)[C@H](CCC(N)=O)NC(=O)[C@@H](NC(=O)[C@H](C)NC(=O)[C@@H]1CSSC[C@H](NC(=O)[C@H](CCCCN)NC(=O)[C@H](CCC(=O)O)NC(=O)CC[C@H](NC(=O)CCCCCCCCCCCCCCCCCCC(=O)O)C(=O)O)C(=O)N[C@@H](CC(N)=O)C(=O)N[C@@H]([C@@H](C)O)C(=O)N[C@@H](C)C(=O)N[C@@H]([C@@H](C)O)C(=O)N1)[C@@H](C)O)C(=O)N[C@@H](CC(C)C)C(=O)N1CCC[C@H]1C(=O)N1CCC[C@H]1C(=O)N[C@H](C(=O)N[C@@H](CC(N)=O)C(=O)N[C@H](C(=O)NCC(=O)N[C@@H](CO)C(=O)N[C@@H](Cc1c[nH]cn1)C(=O)N[C@H](C(=O)N[C@@H](Cc1ccc(O)cc1)C(N)=O)[C@@H](C)O)C(C)C)[C@@H](C)O [Example 58, N-alpha-[(S)-4-Carboxy-4-(19-carboxynonadecanoylamino)butyryl]-Glu-[Glu14,Arg17,His35]-pramlintide] ({C20 diacid-γGlu}-EKCNTATCATQRLAEFLRHSSNNFGPILPPTNVGSHTY-NH2; disulfide 3-8 (inferred); C-terminus assumed) |
